Test results reported in patent US6794397B2, “Substituted nicotinamides and analogs as activators of caspases and inducers of apoptosis and the use thereof” (Cytovia, Inc., priority 2000, dated 2004).
Entries after “also recorded” stand apart in the source; their conditions may differ.

Legend:
T47D [1] = assay: Caspase cascade activation assay (N-(Ac-DEVD)-N'-ethoxycarbonyl-R110 fluorogenic substrate) in T47D cells; assay type: cell-based, Human; conditions: 24 h incubation
Method: (§1) Human breast cancer cell lines T47D and ZR75-1 were grown according to media component mixtures designated by American Type Culture Collection +10% FCS (Invitrogen Corporation, Life Technologies Division), in a 5% CO2 −95% humidity incubator at 37° C. T47D and ZR75-1 cells were maintained at a cell density between 30 and 80% confluency at a cell density of 0.1 to 0.6×10^6 cells/ml. Cells were harvested at 600xg and resuspended at 0.65×10^6 cells/ml into appropriate media +10% FCS. An aliquot of 45 μl of cells was added to a well of a 96-well microtiter plate containing 5 μl of a 10% DMSO in RPMI-1640 media solution containing 1.6 to 100 μM of N-(4-methoxy-2-nitrophenyl)-3-pyridinecarboxamide or other test compound (0.16 to 10 μM final). An aliquot of 45 μl of cells was added to a well of a 96-well microtiter plate containing 5 μl of a 10% DMSO in RPMI-1640 media solution without test compound as the control sample. The samples were mixed by agitation and then incubated at 37 C. for 24 h in a 5% CO2 −95% humidity incubator. After incubation, the samples were removed from the incubator and 50 μl of a solution containing 20 μM of N-(Ac-DEVD)-N′-ethoxycarbonyl-R110 (SEQ ID NO: 1) fluorogenic substrate (Cytovia, Inc.; WO99/18856), 20% sucrose (Sigma), 20 mM DTT (Sigma), 200 mM NaCl (Sigma), 40 mM Na PIPES buffer pH 7.2 (Sigma), and 500 μg/ml lysolecithin (Calbiochem) was added. The samples were mixed by agitation and incubated at room temperature. Using a fluorescent plate reader (Model 1420 Wallac Instruments), an initial reading (T=0) was made approximately 1-2 min after addition of the substrate solution, employing excitation at 485 nm and emission at 530 nm, to determine the background fluorescence of the control sample. After the 3 h incubation, the samples were read for fluorescence as above (T=3 h).
(§2) The Relative Fluorescence Unit values (RFU) were used to calculate the sample readings as follows:
(§3) RFU(T=3h)−Control RFU(T=0)=Net RFU(T=3h).
(§4) The activity of caspase cascade activation was determined by the ratio of the net RFU value for N-(4-methoxy-2-nitrophenyl)-3-pyridinecarboxamide or other test compound to that of control samples. The EC50 (nM) was determined by a sigmoidal dose-response calculation (Prism 2.0, GraphPad Software Inc.).

ZR75-1 = assay: Caspase cascade activation assay (N-(Ac-DEVD)-N'-ethoxycarbonyl-R110 fluorogenic substrate) in ZR75-1 cells; assay type: cell-based, Human
Method: as §1, §2, §3, §4

HeLa cells = assay: Inhibition of proliferation / colony formation of HeLa cells; assay type: cell-based; conditions: Homo sapiens, 48 hr treatment, colonies counted after 5-7 days
Method: HeLa cells were grown according to media component mixtures designated by American Type Culture Collection +10% FCS (Invitrogen Corporation, Life Technologies Division), in a 5% CO2 −95% humidity incubator at 37° C. In a well of a 96 well plate, 30,000 cells were seeded and treated with compound at the indicated concentrations for 48 hr in a 5% CO2−95% humidity incubator at 37° C. Control wells were treated with the same amount of solvent (DMSO) as the compound samples. After the indicated treatment time, the supernatant was removed to a sterile culture tube and the wells washed with phosphate buffered saline, and the adherent cells trypsinized for 5 min. The trypsinzed cells were added to the culture supernatant, cells were collected (1,200 rpm, 10 min), washed with phosphate buffered saline, and resuspended in fresh media. The cells were counted for trypan blue negative cells, and the cells were diluted with fresh media to 1,000 cells/ml. To a well of a 24-well plate, 0.1 ml of the cell suspension was added along with 1 ml of fresh media (cell suspensions were passed through a 22G needle several times just before plating to form single cell suspensions). […] Colonies are counted when the sizes reached greater than 50 cells per colony. […] Colonies are rinsed with water and the colonies counted and the fraction surviving expressed as the percentage of the number of control colonies.

T47D [2] = assay: Cell cycle arrest and apoptosis in T47D cells (propidium iodide flow cytometry); assay type: cell-based, Human; conditions: 1 μM, 48 h
Method: T47D, a breast cancer cell line, was maintained and harvested as described in Example 71. […] As a control, cells were also incubated with equivalent amount of solvent as control (DMSO). Cells were harvested at 1,200 rpm and washed twice with 5 mM EDTA/PBS. Cells were then resuspended in 300 μl EDTA/PBS and 700 μl of 100% ethanol, vortexed and incubated at room temperature for 1 h. Samples were spun down at 1,200 rpm for 5 min and the supernatant was removed. A solution containing 100 μg/ml of propidium iodide and 1 mg/ml of RNAse A (fresh) was added to the samples and incubated for 1 h at room temperature. Samples were then transferred to 12×75 mm polystyrene tubes and analyzed on a flow cytometer. All flow cytometry analyses were performed on FACScalibur (Becton Dickinson) using Cell Quest analysis software. On the x-axis is plotted the fluorescence intensity and on the y-axis is plotted the number of cells with that fluorescence intensity. […] An increase in the sub-diploid DNA content of cells (marker M1 region, FIG. 3) is also seen to increase from 2% to 25% with compound treatment. The sub-diploid amount of DNA (M1) is indicative of apoptotic cells which have undergone DNA degradation or fragmentation.

## CCOc1ccc(NC(=O)c2ccc(Cl)nc2)c([N+](=O)[O-])c1 [Example 8, 6-Chloro-N-(4-ethoxy-2-nitrophenyl)-3-pyridinecarboxamide]
T47D [1]; Homo sapiens, sigmoidal dose-response, read-out: EC50 (nM) caspase potency
  EC50: 153 nM
T47D [1]; ratio of net RFU of test compound to control, 0.16 to 10 μM final
  Caspase activity Ratio: 5.0
ZR75-1; Homo sapiens, ZR-75-1, 24 h incubation, sigmoidal dose-response, read-out: EC50 (nM) caspase potency
  EC50: 77 nM
ZR75-1; ratio of net RFU of test compound to control, 24 h incubation, 0.16 to 10 μM final
  Caspase activity Ratio: 6.3
HeLa cells
  IC50: ~0.1 µM
T47D [2]
  G1 (M2) cells: a reduction in the G1(M2)
  G2/M phase (M4) cells: accumulation of T47D cells in the G2/M phase; also recorded: an increase in the G2/M (M4)
  sub-G1 / sub-diploid DNA content of cells (M1): increase substantially over control cells
